Consider 13 compounds from patent US6218393A, “Anthranilic acid derivatives as multi drug resistance modulators” (priority 1997, dated 2001).

Assay [1] deals with AR 1.0 cells. Kind of assay: Potentiation index with doxorubicin titration. Format: cell-based, mouse. The note with it: for Potentiation Index at RMA concentration 10 nM: Table C1, RMA 10 nM; for Potentiation Index at RMA concentration 30 nM: Table C1, RMA 30 nM; for Potentiation Index at RMA concentration 50 nM: Table C1, RMA 50 nM; for Potentiation Index at RMA concentration 100 nM: Table C1, RMA 100 nM. The protocol: The EMT6 mouse mammary carcinoma cell line and the MDR resistant subline AR 1.0 were cultured in RPMI 1640 medium containing 10% foetal calf serum and 2 mM glutamine at 37° C. in 5% CO2. Cells were passaged between 1 in 200 and 1 in 2000 in the case of the parental cell line and between 1 in 20 and 1 in 200 in the case of the MDR resistant subline, after trypsinisation (0.25% trypsin, 0.2 gl^-1, EDTA). […]
(b) Cells were cultured for four days with a titration of doxorubicin (0.263 nM-17.24 μM) in the presence of a fixed concentration of each compound. Proliferation was quantified as described by Skehen et al, loc cit. The IC50 (concentration required to reduce proliferation to 50% of the untreated controls) for doxorubicin alone and with each compound were derived and used to calculate the potentiation index (PI): [formula]

For assay [2], the system named is AR 1.0 cells. Put plainly: Drug accumulation assay: daunorubicin accumulation in AR 1.0 cells. The assay is classed as cell-based. The note with it: Mus musculus, 100% = accumulation with verapamil 100 μM, 1 hr, 37° C. The protocol: The EMT6 mouse mammary carcinoma cell line and the MDR resistant subline AR 1.0 were cultured in RPMI 1640 medium containing 10% foetal calf serum and 2 mM glutamine at 37° C. in 5% CO2. Cells were passaged between 1 in 200 and 1 in 2000 in the case of the parental cell line and between 1 in 20 and 1 in 200 in the case of the MDR resistant subline, after trypsinisation (0.25% trypsin, 0.2 gl^-1, EDTA).
AR 1.0 cells were seeded 48 hours prior to assay into 96 well opaque culture plates (Canberra Packard).

Consider `COc1cc2c(cc1OC)CN(CCc1cccc(NC(=O)c3ccccc3NC(=O)c3cnc4ccccc4c3)c1)CC2` [compound 9633, Quinoline-3-carboxylic acid (2-{3-[2-(6,7-dimethoxy-3,4-dihydro-1H-isoquinolin-2-yl)-ethyl]-phenylcarbamoyl}-phenyl)-amide], for which, in assay [1], the “Potentiation Index at RMA concentration 10 nM” value is 1.0, the “Potentiation Index at RMA concentration 30 nM” value was determined as 1.3, the “Potentiation Index at RMA concentration 50 nM” value is recorded as 3.4 and the “Potentiation Index at RMA concentration 100 nM” value was 13.7. The IC50 in assay [2] was determined as 593 nM.
Regarding `COc1cc2c(cc1OC)CN(CCc1ccc(NC(=O)c3ccccc3NC(=O)c3coc(C)n3)cc1)CC2` [compound 9638, 2-Methyl-oxazole-4-carboxylic acid (2-{4-[2-(6,7-dimethoxy-3,4-dihydro-1H-isoquinolin-2-yl)-ethyl]-phenylcarbamoyl}-phenyl)-amide], in assay [1], the “Potentiation Index at RMA concentration 30 nM” value was 1.1, the “Potentiation Index at RMA concentration 50 nM” value stood at 1.5 and the “Potentiation Index at RMA concentration 100 nM” value amounted to 2.6. In addition, the half-maximal inhibitory concentration (IC50) in assay [2] came to 552 nM.
Consider `COc1ccc(CN(C)Cc2ccc(NC(=O)c3ccccc3NC(=O)c3cccnc3)cc2)cc1OC(C)C` [compound 9661, N-[2-(4-{[(3-Isopropoxy-4-methoxy-benzyl)-methyl-amino]-methyl}-phenylcarbamoyl)-phenyl]-nicotinamide], for which, in assay [1], the “Potentiation Index at RMA concentration 10 nM” value is recorded as 1.2, the “Potentiation Index at RMA concentration 30 nM” value is 38, the “Potentiation Index at RMA concentration 50 nM” value turned out to be 71 and the “Potentiation Index at RMA concentration 100 nM” value is listed as 195. The IC50 in assay [2] stood at 362 nM.
Regarding `COc1cc(CCN2CCc3cc(OC)c(OC)cc3C2)ccc1NC(=O)c1ccccc1NC(=O)c1cnc2ccccc2c1` [compound 9651, Quinoline-3-carboxylic acid (2-{4-[2-(6,7-dimethoxy-3,4-dihydro-1H-isoquinolin-2-yl)-ethyl]-2-methoxy-phenylcarbamoyl}-phenyl)-amide], in assay [1], the “Potentiation Index at RMA concentration 50 nM” value amounted to 1.1 and the “Potentiation Index at RMA concentration 100 nM” value is listed as 2.2. The same compound registered an IC50 in assay [2] of 71 nM.
As for `COc1cc(CN(C)CCc2ccc(NC(=O)c3ccccc3NC(=O)c3cnc4ccccc4c3)cc2)cc(OC)c1OC` [compound 9640, Quinoline-3-carboxylic acid [2-(4-{2-[methyl-(3,4,5-trimethoxy-benzyl)-amino]-ethyl}-phenylcarbamoyl)-phenyl]-amide], in assay [1], the “Potentiation Index at RMA concentration 10 nM” value came out at 1, the “Potentiation Index at RMA concentration 30 nM” value is 2.5, the “Potentiation Index at RMA concentration 50 nM” value is 4.6 and the “Potentiation Index at RMA concentration 100 nM” value was found to be 23.8. Moreover, the IC50 in assay [2] came to 194 nM.
The corresponding values for `O=C(Nc1ccccc1C(=O)Nc1ccc(CCN2CCc3cc4c(cc3C2)OCO4)cc1)c1cnc2ccccc2c1` [compound 9664, Quinoline-3-carboxylic acid (2-{4-[2-(7,8-dihydro-5H-[1,3]dioxolo[4,5-g]isoquinolin-6-yl)-ethyl]-phenylcarbamoyl}-phenyl)-amide] are 1, 1.9, 37, 116 and 1680 nM.
`COc1cc2c(cc1OC)CN(CCc1ccc(NC(=O)c3ccccc3NC(=O)c3cnc4ccccc4c3)c(C)c1)CC2` [compound 9650, Quinoline-3-carboxylic acid (2-{4-[2-(6,7-dimethoxy-3,4-dihydro-1H-isoquinolin-2-yl)-ethyl]-2-methyl-phenylcarbamoyl}-phenyl)-amide]: in assay [1], the “Potentiation Index at RMA concentration 10 nM” value stood at 3, the “Potentiation Index at RMA concentration 30 nM” value is recorded as 3, the “Potentiation Index at RMA concentration 50 nM” value amounted to 14 and the “Potentiation Index at RMA concentration 100 nM” value stood at 33. In assay [2], this compound had an IC50 of 61 nM.
On to `CN(CCc1ccc(NC(=O)c2ccccc2NC(=O)c2cnc3ccccc3c2)cc1)Cc1ccc(N(C)C)cc1` [compound 9655, Quinoline-3-carboxylic acid [2-(4-{2-[(4-dimethylamino-benzyl)-methyl-amino]-ethyl}-phenylcarbamoyl)-phenyl]-amide], for which, in assay [1], the “Potentiation Index at RMA concentration 10 nM” value turned out to be 1.8, the “Potentiation Index at RMA concentration 30 nM” value worked out at 13, the “Potentiation Index at RMA concentration 50 nM” value stood at 37 and the “Potentiation Index at RMA concentration 100 nM” value is given as 65. The same compound showed an IC50 in assay [2] of 557 nM.
The corresponding values for `COc1cc(CN(C)CCc2ccc(NC(=O)c3ccccc3NC(=O)c3cnc4ccccc4c3)cc2)ccc1O` [compound 9649, Quinoline-3-carboxylic acid [2-(4-{2-[(4-hydroxy-3-methoxy-benzyl)-methyl-amino]-ethyl}phenylcarbamoyl)-phenyl]-amide] are 53, 46, 60, 66 and 188 nM.
Regarding `COc1cc2c(cc1OC)CN(CCOc1ccc(NC(=O)c3ccccc3NC(=O)c3cnc4ccccc4n3)cc1)CC2` [compound 9632, Quinoxaline-2-carboxylic acid (2-{4-[2-(6,7-dimethoxy-3,4-dihydro-1H-isoquinolin-2-yl)-ethoxy]-phenylcarbamoyl}-phenyl)-amide], in assay [1], the “Potentiation Index at RMA concentration 10 nM” value is recorded as 1.1, the “Potentiation Index at RMA concentration 30 nM” value worked out at 2.1, the “Potentiation Index at RMA concentration 50 nM” value was 2.7 and the “Potentiation Index at RMA concentration 100 nM” value is 8. In assay [2], this compound yielded an IC50 of 431 nM.
Take `COc1cc2c(cc1OC)C(C)N(CCc1ccc(NC(=O)c3ccccc3NC(=O)c3cnc4ccccc4c3)cc1)CC2` (stereo not drawn) [compound 9625, Quinoline-3-carboxylic acid (2-{4-[2-(6,7-dimethoxy-1-methyl-3,4-dihydro-1H-isoquinolin 2-yl)-ethyl]-phenylcarbamoyl}-phenyl)-amide]: in assay [1], the “Potentiation Index at RMA concentration 10 nM” value is recorded as 1, the “Potentiation Index at RMA concentration 30 nM” value is given as 4, the “Potentiation Index at RMA concentration 50 nM” value stood at 7 and the “Potentiation Index at RMA concentration 100 nM” value stood at 60. Half-maximal inhibition in assay [2] (IC50) required 347 nM.
Consider `COc1cc2c(cc1OC)CN(CCc1ccc(NC(=O)c3nccnc3NC(=O)c3cnc4ccccc4c3)cc1)CC2` [compound 9622, Quinoline-3-carboxylic acid (3-{4-[2-(6,7-dimethoxy-3,4-dihydro-1H-isoquinolin-2-yl)-ethyl]-phenylcarbamoyl}-pyrazin-2-yl)-amide], for which, in assay [1], the “Potentiation Index at RMA concentration 10 nM” value stood at 1.8, the “Potentiation Index at RMA concentration 30 nM” value is reported as 15, the “Potentiation Index at RMA concentration 50 nM” value amounted to 46 and the “Potentiation Index at RMA concentration 100 nM” value was 79. The “Potentiation Index at RMA concentration 20 nM” value in assay [1] (Table C1, RMA 20 nM) is listed as 8. For the same compound, in assay [2], it took 207 nM to reach half-maximal inhibition (IC50).
For `COc1cc2c(cc1OC)CN(CCc1ccc(NC(=O)c3cc(SC)ccc3NC(=O)c3cnc4ccccc4c3)cc1)CC2` [compound 9615, Quinoline-3-carboxylic acid (2-{4-[2-(6,7-dimethoxy-3,4-dihydro-1H-isoquinolin-2-yl)-ethyl]-phenylcarbamoyl}-4-methylsulfanyl-phenyl)-amide], in assay [1], the “Potentiation Index at RMA concentration 10 nM” value is on record as 2, the “Potentiation Index at RMA concentration 30 nM” value was 23, the “Potentiation Index at RMA concentration 50 nM” value is reported as 85 and the “Potentiation Index at RMA concentration 100 nM” value was found to be 175. This compound also gave an IC50 in assay [2] of 213 nM.

A word on the IC50: it is the concentration that gives 50% inhibition.
